Holding throughout (assay): in vitro agar Petri dish dilution test
Common to all, as to assay type: cell-based

The subject of one assay is A. niger. To be noted: Aspergillus niger, 100% inhibition, read-out: Minimum Inhibitory Concentration. The text has this: (§1) The inventive product has antimicrobial activity. In the conventional in vitro agar Petri dish dilution test for determining bactericidal and fungicidal activity, the compound gave 100% inhibition against the indicated organisms at the following concentrations in parts per million, the tabulated values being indicated as minimum inhibitory concentrations (MIC).

Another assay concerns A. fumigatus. To be noted: Aspergillus fumigatus, 100% inhibition, read-out: Minimum Inhibitory Concentration.
Text: as §1

In a further assay the test system is P. pullulans. To be noted: 100% inhibition, read-out: Minimum Inhibitory Concentration.
Text: as §1

The test system of assay [1] is K. pneumoniae M-1 Midland Hospital. To be noted: Klebsiella pneumoniae, 100% inhibition, read-out: Minimum Inhibitory Concentration.
Text: as §1

The subject of a further assay is P. chrysogenum. To be noted: Penicillium chrysogenum, 100% inhibition, read-out: Minimum Inhibitory Concentration.
Text: as §1

The next assay relates to Torulopsis Species. The conditions noted are these: 100% inhibition, read-out: Minimum Inhibitory Concentration.
Text: as §1

The test system of the next assay is C. ips. The conditions noted are these: 100% inhibition, read-out: Minimum Inhibitory Concentration.
Text: as §1

The subject of the next assay is T. mentagrophytes. To be noted: Trichophyton mentagrophytes, 100% inhibition, read-out: Minimum Inhibitory Concentration.
Text: as §1

Assay [2] has as its system Trichoderm Sp. Madison P-42. To be noted: 100% inhibition, read-out: Minimum Inhibitory Concentration.
Text: as §1

A further assay concerns C. albicans. To be noted: Candida albicans, 100% inhibition, read-out: Minimum Inhibitory Concentration.
Text: as §1

In a further assay the test system is E. coli ATCC 11229. The conditions noted are these: Escherichia coli, ATCC11229, 100% inhibition, read-out: Minimum Inhibitory Concentration.
Text: as §1

For a further assay, the system named is C. pelliculosa. The conditions noted are these: Hansenula anomala, 100% inhibition, read-out: Minimum Inhibitory Concentration.
Text: as §1

The next assay deals with B. subtilis. To be noted: Bacillus subtilis, 100% inhibition, read-out: Minimum Inhibitory Concentration.
Text: as §1

The next assay concerns C. albicansNIH. To be noted: Candida albicans, 100% inhibition, read-out: Minimum Inhibitory Concentration.
Text: as §1

In another assay the test system is S. typhosa. To be noted: 100% inhibition, read-out: Minimum Inhibitory Concentration.
Text: as §1

The next assay concerns S. aureus. The conditions noted are these: Staphylococcus aureus, 100% inhibition, read-out: Minimum Inhibitory Concentration.
Text: as §1

Assay [3] relates to Pseudomonas Sp. Strain 10. To be noted: 100% inhibition, read-out: Minimum Inhibitory Concentration.
Text: as §1

In the next assay the test system is S. marcescens NIH. The conditions noted are these: Serratia marcescens, 100% inhibition, read-out: Minimum Inhibitory Concentration.
Text: as §1

The values that follow come from patent US4049695A, “3-((3-Trifluoromethyl)phenyl)sulfonyl)-2-propenenitrile” (The Dow Chemical Company, priority 1976, dated 1977).

Structures are written as SMILES. ≈ marks a conversion by molar mass, not a printed value.

In the case of `N#CC=CS(=O)(=O)c1cccc(C(F)(F)F)c1` [3-((3-(Trifluoromethyl)phenyl)sulfonyl)-2-propenenitrile], the MIC (with A. niger; in the assay on A. fumigatus; in the assay on P. pullulans; in assay [1]; in the assay on P. chrysogenum; in the assay on Torulopsis Species) was 50 µg/mL (≈ 191 µM) throughout. For the same molecule, the MIC in the assay on C. ips was found to be 10 µg/mL (≈ 38.3 µM); in the assay with T. mentagrophytes, 10 µg/mL (≈ 38.3 µM); in [2], 50 µg/mL (≈ 191 µM); in the assay with C. albicans it was 50 µg/mL (≈ 191 µM); in the assay with E. coli ATCC 11229, 50 µg/mL (≈ 191 µM); in the assay on C. pelliculosa, 10 µg/mL (≈ 38.3 µM). Moreover, the MIC in the assay on B. subtilis was 5 µg/mL (≈ 19.1 µM); in the assay on C. albicansNIH it was 50 µg/mL (≈ 191 µM); in the assay with S. typhosa it was 5 µg/mL (≈ 19.1 µM); with S. aureus, 5 µg/mL (≈ 19.1 µM); in assay [3], 100 µg/mL (≈ 383 µM); in the assay on S. marcescens NIH, 50 µg/mL (≈ 191 µM).
